The numbers were not newly measured in US8114298B2, “Method, device and system for water treatment” (Bromine Compounds Ltd., priority 2006, dated 2012), which cites them from elsewhere.

The conditions of data set [1]: at 25° C.
The conditions of data set [2]: bleach; background statement.

Regarding `O=c1nc([O-])n(Cl)c(=O)n1Cl.[Na+]` [NaDCC, sodium dichloroisocyanurate], the solubility in water result in data set [1] is “up to 24%”.
Turning to `OCl` [Sodium Hypochlorite], the shelf life in data set [2] is reported as 3-6 months.
